Results taken from the SangsterLogP compilation.

SMILES	logP
CCCCCc1cc(OC)c2c(c1)OC(C)(C)[C@@H]1CC=C(C)C[C@@H]21	8.06
CCCCCc1cc(O)c2c(c1)OC(C)(C)[C@@H]1CCC(CO)=C[C@@H]21	5.33
CCC(C)(C)c1ccc(C2CCCC(O)C2)c(O)c1 (centres undefined)	4.32
CCCCCC(C)C(C)c1cc(O)c2c(c1)OC(C)(C)C1=C2CC(C)CC1 (centres undefined)	8.3
CCCCCCC(C)(C)c1cc(O)c2c(c1)OC(C)(C)C1CCC(CO)=CC21 (centres undefined)	7.83
CCCCCCC(C)(C)c1cc(O)c2c(c1)OC(C)(C)C1CC=C(C)CC21 (centres undefined)	9.96
CC(C)(C)c1ccc(C2CCCC(O)C2)c(O)c1 (centres undefined)	4.05
CCCC(C)(C)c1ccc(C2CCCC(O)C2)c(O)c1 (centres undefined)	4.82
CCCCCc1cc(OCc2ccc(-c3ccccc3)cc2)c2c(c1)OC(C)(C)C1CC=C(C)CC21 (centres undefined)	10.9
CCCCC(C)(C)c1ccc(C2CCCC(O)C2)c(O)c1 (centres undefined)	5.43
CCCCCCCC(C)(C)c1ccc([C@H]2CCC[C@@H](O)C2)c(O)c1	7.18
CCCCCCC(C)(C)c1ccc(C2CC(O)CCC2C)c(O)c1 (centres undefined)	7.49
CCCCCCC(C)(C)c1cc(O)c2c(c1)OC(C)(C)C1CCC(C=O)=CC21 (centres undefined)	8.03
CCCCCCC(C)(C)c1cc(O)c2c(c1)OC(C)(C)C1CC=C(CO)CC21 (centres undefined)	7.44
CC(=O)Oc1cc(O[C@H](C)CCCc2ccccc2)cc2c1[C@@H]1C[C@H](O)CC[C@H]1[C@H](C)N2	5.7
CCCCCCC(C)(C)c1ccc(C2CCCC(O)C2)c(O)c1 (centres undefined)	6.68
C=C1CC[C@@H]2[C@@H](C1)c1c(OCc3ccc(-c4ccccc4)cc3)cc(CCCCC)cc1OC2(C)C	11.3

SMILES	logP
CCCCCc1cc(O)c2c(c1)OC(C)(C)C1CC=C(C)CC21 (centres undefined)	7.41
CCCCCc1cc(O)c2c(c1)OC(C)(C)c1ccc(C)cc1-2	6.23
C=C(C)[C@@H]1CCC(C)=C[C@H]1c1c(O)cc(CCCCC)cc1O	5.79
CCCCCCC(C)(C)c1ccc(C2CC(O)CCC2CCCCO)c(O)c1 (centres undefined)	6.68
C=C1C[C@H]2c3c(O)cc(CCCCC)cc3OC(C)(C)[C@@H]2C[C@H]1O	4.24
CCCCCCCCC(C)(C)c1ccc([C@H]2CCC[C@@H](O)C2)c(O)c1	8.16
CCCCCC(C)(C)c1ccc([C@H]2CCC[C@@H](O)C2)c(O)c1	5.97
CCCCCc1cc(OCCCCCN2CC(=O)c3ccccc3C2=O)c2c(c1)OC(C)(C)C1CC=C(C)CC21 (centres undefined)	9.07
CC(=O)Oc1cc(OC(C)CCCc2ccccc2)cc2c1C1CC(O)CCC1C(C)N2C (centres undefined)	5.72
C=C1CCC2C(C1)c1c(OC)cc(CCCCC)cc1OC2(C)C (centres undefined)	7.62
C=C1CCC2C(C1)c1c(OC)cc(CCC)cc1OC2(C)C (centres undefined)	6.26
CC1=CCC2C(C1)c1c(O)cc(NS(C)(=O)=O)cc1OC2(C)C (centres undefined)	3.12
CCCCCc1cc(OCCCCN)c2c(c1)OC(C)(C)C1CC=C(C)CC21 (centres undefined)	8.38
CCCCCCC(C)(C)c1ccc([C@@H]2C[C@H](O)C[C@@H]3CC[C@H](CO)C[C@H]32)c(O)c1	6.13
CCCCCCC(C)(C)c1ccc(C2CC(O)CCC2CCCO)c(O)c1 (centres undefined)	6.13
CCCCCCCCCCC(C)(C)c1ccc(C2CCCC(O)C2)c(O)c1 (centres undefined)	8.42
CCCCCc1cc(O)c2c(c1)OC(C)(C)[C@@H]1CC=C(C(=O)O)C[C@@H]21	3.51
